Source: patent US12180193B2, “Accelerating fibrosarcoma protein degrading compounds and associated methods of use” (Arvinas Operations, Inc., priority 2020, dated 2024)
Where two headings read alike, the source gives them in different places. Values belong to the molecule of their own block, whether it stands above or below them.

How the values were obtained:
[1] = molecular target: T1, BRAF V600E (Homo sapiens, UniProt P15056, V600E); assay: Cellular assay of target protein degradation, T-Rex 293 cells stably transfected with HA-BRAF_V600E (HA immunofluorescence, high content imaging); format: cell-based
T1 construct: expressed in transfected cells
T1 sequence (P15056 whole entry V600E): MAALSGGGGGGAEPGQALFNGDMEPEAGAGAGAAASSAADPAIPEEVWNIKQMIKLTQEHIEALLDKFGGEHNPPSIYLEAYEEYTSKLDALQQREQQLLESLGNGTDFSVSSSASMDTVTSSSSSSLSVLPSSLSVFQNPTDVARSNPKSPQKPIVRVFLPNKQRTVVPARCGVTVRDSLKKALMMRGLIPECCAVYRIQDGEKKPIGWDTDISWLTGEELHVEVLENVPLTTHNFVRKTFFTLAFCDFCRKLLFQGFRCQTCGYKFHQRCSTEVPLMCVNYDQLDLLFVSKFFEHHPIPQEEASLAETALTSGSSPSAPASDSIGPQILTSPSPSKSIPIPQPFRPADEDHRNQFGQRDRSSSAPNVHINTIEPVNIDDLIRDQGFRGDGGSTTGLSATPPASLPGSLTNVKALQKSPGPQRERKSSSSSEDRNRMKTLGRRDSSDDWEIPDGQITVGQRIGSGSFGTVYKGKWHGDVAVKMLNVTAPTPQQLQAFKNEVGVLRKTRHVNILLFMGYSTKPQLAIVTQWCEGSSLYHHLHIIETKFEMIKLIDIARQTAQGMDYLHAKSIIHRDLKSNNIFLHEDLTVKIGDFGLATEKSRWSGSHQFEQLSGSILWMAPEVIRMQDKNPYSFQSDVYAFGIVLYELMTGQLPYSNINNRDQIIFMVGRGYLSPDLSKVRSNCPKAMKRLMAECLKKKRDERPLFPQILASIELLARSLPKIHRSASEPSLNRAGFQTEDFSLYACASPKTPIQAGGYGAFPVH
Method in brief: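 Cells are plated with 1 ng/mL doxycycline and grown 24 h. Compound is then added (final 1 μM–0.1 nM, 0.1% DMSO) for another 24 h at 37 °C, followed by fixing, HA immunostaining and imaging to obtain DC50 and Dmax.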

[2] = molecular target: T2, BRAF G466V (Homo sapiens, UniProt P15056, G466V); assay: Cellular assay of target protein degradation, T-Rex 293 cells stably transfected with HA-BRAF G466V (HA immunofluorescence, high content imaging); format: cell-based
T2 construct: expressed in transfected cells
T2 sequence (P15056 whole entry G466V): as the sequence (P15056 whole entry V600E) above, with G466V, E600V counted along it
Method in brief: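 Read-out is HA immunofluorescence by high content imaging, with Hoechst and phalloidin co-staining, giving DC50 and Dmax as a percentage of control. Compound exposure lasts 24 hours at 37° C over 30 nM to 3 pM in 0.1% DMSO, with doxycycline-induced HA-BRAF G466V.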

[3] = half maximal degradation, T-Rex 293 HA-BRAF V600E; read-out: BRaf V600E DC50
[4] = maximum degradation observed, T-Rex 293 HA-BRAF V600E
[5] = half maximal degradation, T-Rex 293 HA-BRAF G466V; read-out: BRaf G466V DC50
[6] = maximum degradation observed, T-Rex 293 HA-BRAF G466V

Compound: O=C1CC[C@H](N2Cc3cc(N4C[C@H]5CN(CC6CCN(c7ccc(-c8cnc9[nH]cc(C(=O)c%10c(F)ccc(NS(=O)(=O)N%11CC[C@@H](F)C%11)c%10F)c9c8)cc7)CC6)C[C@H]5C4)ccc3C2=O)C(=O)N1 [Compound 57, (3R)-N-(3-{5-[4-(4-{[(3aR,6aS)-5-{2-[(3S)-2,6-dioxopiperidin-3-yl]-1-oxo-2,3-dihydro-1H-isoindol-5-yl}-octahydropyrrolo [3,4-c]pyrrol-2-yl]methyl}piperidin-1-yl)phenyl]-1H-pyrrolo[2,3-b]pyridine-3-carbonyl}-2,4-difluorophenyl)-3-fluoropyrrolidine-1-sulfonamide]
- DC50 [1, 3]: < 5 nM
- Dmax [1, 4]: 35 to 70%
- DC50 [2, 5]: < 1 nM
- Dmax [2, 6]: > 70%

Compound: O=C1CC[C@@H](N2Cc3cc(N4C[C@H]5CN(CC6CCN(c7ccc(-c8cnc9[nH]cc(C(=O)c%10c(F)ccc(NS(=O)(=O)N%11CC[C@@H](F)C%11)c%10F)c9c8)cc7)CC6)C[C@H]5C4)ccc3C2=O)C(=O)N1 [Compound 58, (3R)-N-(3-{5-[4-(4-{[(3aR,6aS)-5-{2-[(3R)-2,6-dioxopiperidin-3-yl]-1-oxo-2,3-dihydro-1H-isoindol-5-yl}-octahydropyrrolo [3,4-c]pyrrol-2-yl]methyl}piperidin-1-yl)phenyl]-1H-pyrrolo[2,3-b]pyridine-3-carbonyl}-2,4-difluorophenyl)-3-fluoropyrrolidine-1-sulfonamide]
- DC50 [1, 3]: < 5 nM
- Dmax [1, 4]: < 35%
- DC50 [2, 5]: < 1 nM
- Dmax [2, 6]: 35 to 70%

Compound: COc1cc(N2CC3(CC(CN4CCN(c5ccc(-c6cnc7[nH]cc(C(=O)c8c(F)ccc(NS(=O)(=O)N9CC[C@@H](F)C9)c8F)c7c6)cc5)CC4)C3)C2)cc2c1C(=O)N(C1CCC(=O)NC1=O)C2 (stereo partly drawn) [Compound 59, (3R)-N-[3-(5-{4-[4-({2-[2-(2,6-dioxopiperidin-3-yl)-7-methoxy-1-oxo-2,3-dihydro-1H-isoindol-5-yl]-2-azaspiro[3.3]heptan-6-yl}methyl)piperazin-1-yl]phenyl}-1H-pyrrolo[2,3-b]pyridine-3-carbonyl)-2,4-difluorophenyl]-3-fluoropyrrolidine-1-sulfonamide]
- DC50 [1, 3]: 5 to 50 nM
- Dmax [1, 4]: 35 to 70%
- DC50 [2, 5]: 1 to 10 nM
- Dmax [2, 6]: > 70%

Compound: CC(C)(C1CCN(c2ccc(-c3cnc4[nH]cc(C(=O)c5c(F)ccc(NS(=O)(=O)N6CC[C@@H](F)C6)c5F)c4c3)cc2)CC1)N1CC2(CN(c3ccc4c(c3)CN(C3CCC(=O)NC3=O)C4=O)C2)C1 (stereo partly drawn) [Compound 60, (3R)-N-[3-(5-{4-[4-(2-{6-[2-(2,6-dioxopiperidin-3-yl)-1-oxo-2,3-dihydro-1H-isoindol-5-yl]-2,6-diazaspiro[3.3]heptan-2-yl}propan-2-yl)piperidin-1-yl]phenyl}-1H-pyrrolo[2,3-b]pyridine-3-carbonyl)-2,4-difluorophenyl]-3-fluoropyrrolidine-1-sulfonamide]
- Dmax [1, 4]: 35 to 70%
- DC50 ([1]; read-out: BRaf V600E DC50; half maximal degradation, T-Rex 293 HA-BRAF V600E): 5 to 50 nM
- Dmax [2, 6]: > 70%
- DC50 ([2]; read-out: BRaf G466V DC50; half maximal degradation, T-Rex 293 HA-BRAF G466V): 1 to 10 nM

Compound: O=C1CCC(N2Cc3cc(N4CCC(N5CCCC56CN(c5ccc(-c7cnc8[nH]cc(C(=O)c9c(F)ccc(NS(=O)(=O)N%10CC[C@@H](F)C%10)c9F)c8c7)cc5)C6)CC4)ccc3C2=O)C(=O)N1 (stereo partly drawn) [Compound 66, (3R)-N-(3-{5-[4-(5-{1-[2-(2,6-dioxopiperidin-3-yl)-1-oxo-2,3-dihydro-1H-isoindol-5-yl]piperidin-4-yl}-2,5-diazaspiro[3.4]octan-2-yl)phenyl]-1H-pyrrolo[2,3-b]pyridine-3-carbonyl}-2,4-difluorophenyl)-3-fluoropyrrolidine-1-sulfonamide]
- DC50 [1, 3]: > 500 nM
- DC50 [2, 5]: 10 to 30 nM
- Dmax [2, 6]: > 70%

Compound: O=C1CC[C@H](N2Cc3cc([C@H](O)CCN4CCC(c5ccc(-c6cnc7[nH]cc(C(=O)c8c(F)ccc(NS(=O)(=O)N9CC[C@@H](F)C9)c8F)c7c6)cc5)CC4)ccc3C2=O)C(=O)N1 [Compound 67, (3R)—N-[3-[5-(4-[1-[(3R)-3-[2-[(3S)-2,6-dioxopiperidin-3-yl]-1-oxo-3H-isoindol-5-yl]-3-hydroxypropyl]piperidin-4-yl]phenyl)-1H-pyrrolo[2,3-b]pyridine-3-carbonyl]-2,4-difluorophenyl]-3-fluoropyrrolidine-1-sulfonamide]
- DC50 [1, 3]: 5 to 50 nM
- Dmax [1, 4]: 35 to 70%
- DC50 [2, 5]: 1 to 10 nM
- Dmax [2, 6]: > 70%

Compound: O=C1CC[C@@H](N2Cc3cc([C@H](O)CCN4CCC(c5ccc(-c6cnc7[nH]cc(C(=O)c8c(F)ccc(NS(=O)(=O)N9CC[C@@H](F)C9)c8F)c7c6)cc5)CC4)ccc3C2=O)C(=O)N1 [Compound 68, (3R)—N-[3-[5-(4-[1-[(3R)-3-[2-[(3R)-2,6-dioxopiperidin-3-yl]-1-oxo-3H-isoindol-5-yl]-3-hydroxypropyl]piperidin-4-yl]phenyl)-1H-pyrrolo[2,3-b]pyridine-3-carbonyl]-2,4-difluorophenyl]-3-fluoropyrrolidine-1-sulfonamide]
- DC50 [1, 3]: > 500 nM
- DC50 [2, 5]: 1 to 10 nM
- Dmax [2, 6]: > 70%

Compound: COc1cc(N2CC(CN3CCN(c4ccc(-c5cnc6[nH]cc(C(=O)c7c(F)ccc(NS(=O)(=O)N8CC[C@@H](F)C8)c7F)c6c5)cc4)CC3)C2)cc2c1C(=O)N(C1CCC(=O)NC1=O)C2 (stereo partly drawn) [Compound 70, (3R)-N-[3-(5-{4-[4-({1-[2-(2,6-dioxopiperidin-3-yl)-7-methoxy-1-oxo-2,3-dihydro-1H-isoindol-5-yl]azetidin-3-yl}methyl)piperazin-1-yl]phenyl}-1H-pyrrolo[2,3-b]pyridine-3-carbonyl)-2,4-difluorophenyl]-3-fluoropyrrolidine-1-sulfonamide]
- DC50 [1, 3]: 5 to 50 nM
- Dmax [1, 4]: 35 to 70%
- DC50 [2, 5]: < 1 nM
- Dmax [2, 6]: 35 to 70%

Next, values leading:

- DC50 [1, 3]: 5 to 50 nM
- Dmax [1, 4]: 35 to 70%
- DC50 [2, 5]: 1 to 10 nM
- Dmax [2, 6]: 35 to 70%
Compound: O=C1CCC(N2Cc3cc(C(O)CCN4CC5(C4)CN(c4ccc(-c6cnc7[nH]cc(C(=O)c8c(F)ccc(NS(=O)(=O)N9CC[C@@H](F)C9)c8F)c7c6)cc4)C5)ccc3C2=O)C(=O)N1 (stereo partly drawn) [Compound 61, (3R)-N-(3-{5-[4-(6-{3-[2-(2,6-dioxopiperidin-3-yl)-1-oxo-2,3-dihydro-1H-isoindol-5-yl]-3-hydroxypropyl}-2,6-diazaspiro[3.3]heptan-2-yl)phenyl]-1H-pyrrolo[2,3-b]pyridine-3-carbonyl}-2,4-difluorophenyl)-3-fluoropyrrolidine-1-sulfonamide]

- DC50 [1, 3]: < 5 nM
- Dmax [1, 4]: 35 to 70%
- DC50 [2, 5]: < 1 nM
- Dmax [2, 6]: 35 to 70%
Compound: O=C1CC[C@H](N2Cc3cc(CCCCN4CC5(C4)CN(c4ccc(-c6cnc7[nH]cc(C(=O)c8c(F)ccc(NS(=O)(=O)N9CC[C@@H](F)C9)c8F)c7c6)cc4)C5)ccc3C2=O)C(=O)N1 [Compound 62, (3R)-N-[3-(5-{4-[6-(4-{2-[(3S)-2,6-dioxopiperidin-3-yl]-1-oxo-2,3-dihydro-1H-isoindol-5-yl}butyl)-2,6-diazaspiro[3.3]heptan-2-yl]phenyl}-1H-pyrrolo[2,3-b]pyridine-3-carbonyl)-2,4-difluorophenyl]-3-fluoropyrrolidine-1-sulfonamide]

- DC50 [1, 3]: > 500 nM
- DC50 [2, 5]: 1 to 10 nM
- Dmax [2, 6]: > 70%
Compound: O=C1CC[C@@H](N2Cc3cc(CCCCN4CC5(C4)CN(c4ccc(-c6cnc7[nH]cc(C(=O)c8c(F)ccc(NS(=O)(=O)N9CC[C@@H](F)C9)c8F)c7c6)cc4)C5)ccc3C2=O)C(=O)N1 [Compound 63, (3R)-N-[3-(5-{4-[6-(4-{2-[(3R)-2,6-dioxopiperidin-3-yl]-1-oxo-2,3-dihydro-1H-isoindol-5-yl}butyl)-2,6-diazaspiro[3.3]heptan-2-yl]phenyl}-1H-pyrrolo[2,3-b]pyridine-3-carbonyl)-2,4-difluorophenyl]-3-fluoropyrrolidine-1-sulfonamide]

- DC50 [1, 3]: 5 to 50 nM
- Dmax [1, 4]: 35 to 70%
- DC50 [2, 5]: < 1 nM
- Dmax [2, 6]: 35 to 70%
Compound: O=C1CCC(N2Cc3cc(CCCCCN4CCN(c5ccc(-c6cnc7[nH]cc(C(=O)c8c(F)ccc(NS(=O)(=O)N9CC[C@@H](F)C9)c8F)c7c6)cc5)CC4)ccc3C2=O)C(=O)N1 (stereo partly drawn) [Compound 64, (3R)-N-(3-{5-[4-(4-{5-[2-(2,6-dioxopiperidin-3-yl)-1-oxo-2,3-dihydro-1H-isoindol-5-yl]pentyl}piperazin-1-yl)phenyl]-1H-pyrrolo[2,3-b]pyridine-3-carbonyl}-2,4-difluorophenyl)-3-fluoropyrrolidine-1-sulfonamide]

- DC50 [1, 3]: 5 to 50 nM
- Dmax [1, 4]: 35 to 70%
- DC50 [2, 5]: < 1 nM
- Dmax [2, 6]: 35 to 70%
Compound: O=C1CCC(N2Cc3cc(CCCCCN4CCC(c5ccc(-c6cnc7[nH]cc(C(=O)c8c(F)ccc(NS(=O)(=O)N9CC[C@@H](F)C9)c8F)c7c6)cc5)CC4)ccc3C2=O)C(=O)N1 (stereo partly drawn) [Compound 65, (3R)-N-(3-{5-[4-(1-{5-[2-(2,6-dioxopiperidin-3-yl)-1-oxo-2,3-dihydro-1H-isoindol-5-yl]pentyl}piperidin-4-yl)phenyl]-1H-pyrrolo[2,3-b]pyridine-3-carbonyl}-2,4-difluorophenyl)-3-fluoropyrrolidine-1-sulfonamide]

- DC50 [1, 3]: 5 to 50 nM
- Dmax [1, 4]: 35 to 70%
- DC50 [2, 5]: 1 to 10 nM
- Dmax [2, 6]: > 70%
Compound: O=C1CCC(N2Cc3cc(C4CCN(CCOc5ccc(-c6cnc7[nH]cc(C(=O)c8c(F)ccc(NS(=O)(=O)N9CC[C@@H](F)C9)c8F)c7c6)cc5)CC4)ccc3C2=O)C(=O)N1 (stereo partly drawn) [Compound 69, (3R)-N-(3-{5-[4-(2-{4-[2-(2,6-dioxopiperidin-3-yl)-1-oxo-2,3-dihydro-1H-isoindol-5-yl]piperidin-1-yl}ethoxy)phenyl]-1H-pyrrolo[2,3-b]pyridine-3-carbonyl}-2,4-difluorophenyl)-3-fluoropyrrolidine-1-sulfonamide]
